Test results reported in patent US7699995B2, “Water treatment method” (priority 2006, dated 2010).
Values after ≈ are worked out from the molar mass of the structure shown.

Tests used:
Assay type in all cases: cell-based
Alcaligenes faecalis = test: MIC, bacteria, TSB pH 7; details: 48 h
Experimental: (§1) Minimum inhibitory concentration (MIC) studies were conducted to determine the lowest level of biocide required to inhibit growth of bacteria and fungi. Tests were conducted in 96-well microtiter plates. Biocides were added to growth media in the plates and serially diluted to obtain a range of concentrations. Bacterial tests were conducted in trypticase soy broth (TSB; pH 7) using an overnight inoculum added at 10^6 colony forming units per ml. […] Fungal tests were conducted in malt extract broth (MEB; pH 4.7) using an 5-7 day inoculum added at 10^4 colony forming units per ml.

Citrobacter freundii = test: MIC, bacteria, TSB pH 7; details: 48 h, TSB pH 7, 25° C., two days
Experimental: as §1

Enterobacter aerogenes = test: MIC, bacteria, TSB pH 7; details: Klebsiella aerogenes, 48 h
Experimental: as §1

Enterobacter cloacae = test: MIC, bacteria, TSB pH 7; details: 48 h
Experimental: as §1

Escherichia coli = test: MIC, bacteria, TSB pH 7; details: 48 h
Experimental: as §1

Klebsiella pneumoniae = test: MIC, bacteria, TSB pH 7; details: 48 h
Experimental: as §1

Pseudomonas aeruginosa = test: MIC, bacteria, TSB pH 7; details: 48 h, TSB pH 7, 25° C., two days
Experimental: as §1

Pseudomonas putida = test: MIC, bacteria, TSB pH 7; details: 48 h
Experimental: as §1

Shewanella putrefaciens = test: MIC, bacteria, TSB pH 7; details: 48 h
Experimental: as §1

Bacteria = test: MIC, average over bacteria
Experimental: as §1

Acremonium strictum = test: MIC, fungi, MEB pH 4.7; details: Sarocladium strictum, 168 h
Experimental: as §1

Candida albicans = test: MIC, fungi, MEB pH 4.7; details: 168 h
Experimental: as §1

Field Isolate (fungi) = test: MIC, fungi, MEB pH 4.7; details: 168 h, MEB pH 4.7, 25° C., 7 days
Experimental: as §1

Fusarium solani = test: MIC, fungi, MEB pH 4.7; details: 168 h
Experimental: as §1

Fusarium sp. = test: MIC, fungi, MEB pH 4.7; details: 168 h, MEB pH 4.7, 25° C., 7 days
Experimental: as §1

Geotrichum candidum = test: MIC, fungi, MEB pH 4.7; details: 168 h
Experimental: as §1

Rhodotorula rubra = test: MIC, fungi, MEB pH 4.7; details: 168 h
Experimental: as §1

Trichosporon sp. = test: MIC, fungi, MEB pH 4.7; details: 168 h
Experimental: as §1

Q: Which MIC (Alcaligenes faecalis) does the source give for `Cn1sccc1=O` [MI, 2-methyl-4-isothiazolin-3-one] here?
A: 28 µg/mL (≈ 243 µM)

Q: And the MIC (Citrobacter freundii; first listed)?
A: 25 µg/mL (≈ 217 µM)

Q: And the MIC (Citrobacter freundii; second listed)?
A: 41 µg/mL (≈ 356 µM)

Q: And the MIC (Enterobacter aerogenes)?
A: 82 µg/mL (≈ 712 µM)

Q: What about the MIC (Enterobacter cloacae) of the same molecule?
A: 25 µg/mL (≈ 217 µM)

Q: What about the MIC (Escherichia coli) of the same molecule?
A: 31 µg/mL (≈ 269 µM)

Q: And the MIC (Klebsiella pneumoniae)?
A: 12 µg/mL (≈ 104 µM)

Q: And the MIC (Pseudomonas aeruginosa; first listed)?
A: 15 µg/mL (≈ 130 µM)

Q: And the MIC (Pseudomonas aeruginosa; second listed)?
A: 25 µg/mL (≈ 217 µM)

Q: And the MIC (Pseudomonas putida)?
A: 13 µg/mL (≈ 113 µM)

Q: And the MIC (Shewanella putrefaciens)?
A: 13 µg/mL (≈ 113 µM)

Q: What about the MIC (Bacteria; average over the bacteria tested) of the same molecule?
A: 24 µg/mL (≈ 208 µM)

Q: And the “MI: CMI + MI MIC Ratio” value (Bacteria; bacteria, ratio of average MICs)?
A: 10.9

Q: What about the MIC (Acremonium strictum) of the same molecule?
A: 16 µg/mL (≈ 139 µM)

Q: And the MIC (Candida albicans)?
A: 100 µg/mL (≈ 868 µM)

Q: What about the MIC (Field Isolate (fungi); first listed) of the same molecule?
A: 8 µg/mL (≈ 69.5 µM)

Q: What about the MIC (Field Isolate (fungi); second listed) of the same molecule?
A: 21 µg/mL (≈ 182 µM)

Q: And the MIC (Field Isolate (fungi); third listed)?
A: 6 µg/mL (≈ 52.1 µM)

Q: And the MIC (Fusarium solani)?
A: 13 µg/mL (≈ 113 µM)

Q: What about the MIC (Fusarium sp.) of the same molecule?
A: 25 µg/mL (≈ 217 µM)

Q: And the MIC (Geotrichum candidum)?
A: 250 µg/mL (≈ 2170 µM)

Q: What about the MIC (Rhodotorula rubra) of the same molecule?
A: 125 µg/mL (≈ 1090 µM)

Q: What about the MIC (Trichosporon sp.) of the same molecule?
A: 63 µg/mL (≈ 547 µM)
